The values below come from patent US20250276069A1, “HETEROBIFUNCTIONAL COMPOSITIONS FOR TARGETED PROTEIN DEGRADATION AND METHODS FOR THEIR USE” (THE SCRIPPS RESEARCH INSTITUTE, priority 2021, published 2025).

Molecules are shown by their SMILES. Entries after “also recorded” stand apart in the source; their conditions may differ.

For this experiment, the system named is HCC1806 cells. The experiment in a line: TMT MS quantitative proteomics of live cells treated with FragTAC probes (HCC1806). To be noted: for Proteins targeted (downregulated) by FragTAC probe: value = downregulated protein; for Downregulated proteins targeted by FragTAC probes (protein listed for the probe code): cell line not given. It is filed as cell-based, Homo Sapiens. As to the method:
Mammalian cell culture: MDA-MB-231 cells (ATCC) were maintained in DMEM supplemented with 10% (v/v) fetal bovine serum (FBS), 1% (v/v) penicillin/streptomycin, and 2 mM glutamine. HCC1806 cells (ATCC) were maintained in RPMI supplemented with 10% (v/v) fetal bovine serum (FBS), 1% (v/v) penicillin/streptomycin, and 2 mM glutamine. All cell lines were grown at 37° C. in a humidified 5% CO2 atmosphere.
Treatment of Live Cells with FragTAC Probes: Separate 6 cm (for gel-based analyses) or 10 cm (for MS-based analyses) dishes of MDA-MB-231 cells or HCC1806 cells were grown to 80-95% confluency with DMEM media and RPMI media respectively. The growth medium was aspirated, and the cells were washed with Dulbecco's phosphate buffered saline (DPBS). The cells were incubated with serum-free media containing fragment probes (200 μM) or control probes (200 μM) for 6 hours at 37° C. under a 5% CO2 atmosphere. The cultures were scraped, washed with cold DPBS, and collected into 15 mL centrifuge tubes, then transferred to 1.5 mL Eppendorf tubes. The cell suspensions were centrifuged (1,400 g, 3 min) and the pellets were stored at −80° C. until the next stage of processing.
Sample preparation for TMT MS Quantitative Proteomics: For treatment of cell lysates, cells were collected, cell pellets were resuspended in 100 μL DPBS containing 1× Halt protease inhibitor cocktail, and lysed by sonication (15 ms on, 40 ms off, 15% amplitude, 1 s total). Protein concentrations were normalized (2 mg/mL in 100 μL with cold DPBS) using the Lowry Protein Assay (Pierce). Urea (48 mg) was weighed for each sample in 2 mL LoBind Eppendorf tubes and cell lysates (100 μL=200 μg) were added (final urea concentration=8 M). Pellets were resuspended in a freshly prepared 1:1 solution (50 μL) TCEP (200 mM in DPBS) and K2CO3 (600 mM in DPBS) and incubated (30 min, 37° C.) while shaking. After reaction, a solution of freshly prepared iodoacetamide (70 μL, 400 mM in DPBS) was added and incubated for 30 min at room temperature while protected from light. After reaction, 1.8 mL of cold 3:1:2 MeOH/CHCl3/H2O solution was added to each tube, and the samples were centrifuged (10,000×g, 10 min, 4° C.), forming a disc. The supernatant was carefully removed, MeOH (600 μL) was added, samples were centrifuged as previously described and the supernatant was removed. Cell pellets were resuspended in TEAB (160 μL, 100 mM, pH 8.5) and sonicated as described previously. Endoproteinase LysC (20 μL, ½ vial, 10 μg dissolved in 220 μL of 100 mM TEAB pH 8.5) was added to each and incubated at 37° C. for 2 h with shaking. Sequencing-grade modified porcine trypsin (20 μL, 1 vial, 20 μg dissolved in 220 μL of 100 mM TEAB pH 8.5), a solution of Protease Max (2 μL, 1% (w/v) in 100 mM TEAB pH 8.5) and a solution of CaCl2) (2 μL, 100 mM) were added to the samples and incubated at 37° C. overnight (14 h) with shaking. The digest was separated by centrifugation (12,000×g, 10 min, 4° C.). Peptide concentration was determined using Pierce Quantitative Fluorometric Peptide Assay Kit (Thermo Fisher Scientific, 23290) according to manufacturer's instructions. MS-grade acetonitrile (12.5 μL) was added to each and samples were labeled with respective TMT 10 plex isotope (8 μL, 20 μg/μL) for 1 h with occasional vortexing at RT. To quench, hydroxylamine (3 μL, 5% v/v) was added to each sample, vortexed, and incubated for 15 min at RT. Formic acid (5 μL) was added to each tube to acidify and the samples were dried under vacuum centrifugation. The samples were combined by redissolving the contents of one tube in a solution of trifluoroacetic acid (TFA, 400 μL, 0.1% in water) and transferred into each sample until all samples were redissolved. The stepwise process was repeated with formic acid (Buffer A, 200 μL, 0.1% in water) for a final volume of 600 μL. […]

The mark [1] stands for this setting: protein with 2 unique peptides or more, depleted 2-fold or more relative to DMSO control (P value <0.05).
[2] abbreviates: TMT proteomics, targets with 2 unique peptides or more and depleted 2-fold or more relative to DMSO control (P value <0.05).

`Cc1ncsc1-c1ccc(CNC(=O)[C@@H]2C[C@@H](O)CN2C(=O)[C@@H](NC(=O)CCOCCOCCOCCC(=O)N2CCN(C(c3ccccc3)c3ccccc3)C[C@@H]2c2ccccc2)C(C)(C)C)cc1` [CMC-6-123, (2S,4R)-1-((S)-16-((S)-4-benzhydryl-2-phenylpiperazin-1-yl)-2-(tert-butyl)-4,16-dioxo-7,10,13-trioxa-3-azahexadecanoyl)-4-hydroxy-N-(4-(4-methylthiazol-5-yl)benzyl)pyrrolidine-2-carboxamide]: the “Proteins targeted (downregulated) by FragTAC probe” value (“Proteins targeted (downregulated)” for short) under setting [1] is recorded as “ZBTB1; also recorded: ZNF217”.
Still for that read-out and setting: with `Cc1ncsc1-c1ccc(CNC(=O)[C@@H]2C[C@@H](O)CN2C(=O)[C@@H](NC(=O)CCOCCC(=O)N2CCN(C(c3ccccc3)c3ccccc3)CC2)C(C)(C)C)cc1` [IF-049, (2S,4R)-1-((S)-2-(3-(3-(4-benzhydrylpiperazin-1-yl)-3-oxopropoxy)propanamido)-3,3-dimethylbutanoyl)-4-hydroxy-N-(4-(4-methylthiazol-5-yl)benzyl)pyrrolidine-2-carboxamide] the entry was “YIPF3; also recorded: YLPM1; also recorded: ZNF185”.
Regarding `Cc1ncsc1-c1ccc(CNC(=O)[C@@H]2C[C@@H](O)CN2C(=O)[C@@H](NC(=O)CCOCCOCCOCCC(=O)N2CCN(CC3=C(c4ccc(Cl)cc4)CC(C)(C)CC3)CC2)C(C)(C)C)cc1` [IF-060, (2S,4R)-1-((S)-2-(tert-butyl)-16-(4-((4′-chloro-5,5-dimethyl-3,4,5,6-tetrahydro-[1,1′-biphenyl]-2-yl)methyl)piperazin-1-yl)-4,16-dioxo-7,10,13-trioxa-3-azahexadecanoyl)-4-hydroxy-N-(4-(4-methylthiazol-5-yl)benzyl)pyrrolidine-2-carboxamide], the “Downregulated proteins targeted by FragTAC probes (protein listed for the probe code)” value (“Downregulated proteins targeted” below) under setting [2] is “GHITM”.
For `CCn1c2ccccc2c2ccc(CN(C(=O)CCOCCOCCOCCC(=O)N[C@H](C(=O)N3C[C@H](O)C[C@H]3C(=O)NCc3ccc(-c4scnc4C)cc3)C(C)(C)C)C3CCCC3)cc21` [IF-062, (2S,4R)-1-((S)-17-(tert-butyl)-2-cyclopentyl-1-(9-ethyl-9H-carbazol-2-yl)-3,15-dioxo-6,9,12-trioxa-2,16-diazaoctadecan-18-oyl)-4-hydroxy-N-(4-(4-methylthiazol-5-yl)benzyl)pyrrolidine-2-carboxamide], the “Downregulated proteins targeted” value under setting [2] is given as “GHITM”.
Regarding `Cc1ncsc1-c1ccc(CNC(=O)[C@@H]2C[C@@H](O)CN2C(=O)[C@@H](NC(=O)CCOCCOCCOCCC(=O)NCCc2cn(Cc3ccccc3)c3ccccc23)C(C)(C)C)cc1` [IF-063, (2S,4R)-1-((S)-19-(1-benzyl-1H-indol-3-yl)-2-(tert-butyl)-4,16-dioxo-7,10,13-trioxa-3,17-diazanonadecanoyl)-4-hydroxy-N-(4-(4-methylthiazol-5-yl)benzyl)pyrrolidine-2-carboxamide], the “Proteins targeted (downregulated)” value under setting [2] is recorded as “TMBIM6”.
Take `Cc1ncsc1-c1ccc(CNC(=O)[C@@H]2C[C@@H](O)CN2C(=O)[C@@H](NC(=O)CCOCCOCCOCCC(=O)N2CCCC2c2noc(Cc3ccc(Br)cc3)n2)C(C)(C)C)cc1` (stereo partly drawn) [IF-064, (2S,4R)-1-((2S)-16-(2-(5-(4-bromobenzyl)-1,2,4-oxadiazol-3-yl)pyrrolidin-1-yl)-2-(tert-butyl)-4,16-dioxo-7,10,13-trioxa-3-azahexadecanoyl)-4-hydroxy-N-(4-(4-methylthiazol-5-yl)benzyl)pyrrolidine-2-carboxamide]: the “Downregulated proteins targeted” value under setting [2] is reported as “GHITM”.
Regarding `Cc1ncsc1-c1ccc(CNC(=O)[C@@H]2C[C@@H](O)CN2C(=O)[C@@H](NC(=O)CCOCCOCCOCCC(=O)NC2=NC(c3ccccc3)c3ccccc3NC2=O)C(C)(C)C)cc1` (stereo partly drawn) [IF-065, (2S,4R)-1-((2S)-2-(tert-butyl)-4,16-dioxo-16-((2-oxo-5-phenyl-2,5-dihydro-1H-benzo[e][1,4]diazepin-3-yl)amino)-7,10,13-trioxa-3-azahexadecanoyl)-4-hydroxy-N-(4-(4-methylthiazol-5-yl)benzyl)pyrrolidine-2-carboxamide], under setting [2], the “Downregulated proteins targeted” value is recorded as “BRD2” and the “Proteins targeted (downregulated)” value is “TMBIM6”.
With `Cc1ncsc1-c1ccc(CNC(=O)[C@@H]2C[C@@H](O)CN2C(=O)[C@@H](NC(=O)CCOCCOCCOCCNC(=O)CCc2nc(-c3ccccc3)c(-c3ccccc3)o2)C(C)(C)C)cc1` [IF-072, (2S,4R)-1-((S)-2-(tert-butyl)-19-(4,5-diphenyloxazol-2-yl)-4,17-dioxo-7,10,13-trioxa-3,16-diazanonadecanoyl)-4-hydroxy-N-(4-(4-methylthiazol-5-yl)benzyl)pyrrolidine-2-carboxamide], the “Proteins targeted (downregulated)” value under setting [1] is “ZC3H14; also recorded: ZNF800”.
`Cc1ncsc1-c1ccc(CNC(=O)[C@@H]2C[C@@H](O)CN2C(=O)[C@@H](NC(=O)CCOCCOCCOCCNC(=O)c2[nH]c3ccc(Cl)cc3c2-c2ccccc2)C(C)(C)C)cc1` [IF-073, 5-chloro-N-((S)-14-((2S,4R)-4-hydroxy-2-((4-(4-methylthiazol-5-yl)benzyl)carbamoyl)pyrrolidine-1-carbonyl)-15,15-dimethyl-12-oxo-3,6,9-trioxa-13-azahexadecyl)-3-phenyl-1H-indole-2-carboxamide]: under setting [2], the “Downregulated proteins targeted” value was “CYP1B1 and FAM177A1 and GHITM and LGMN”; the “Proteins targeted (downregulated)” value was “NPC2 and PCLAF and RPLP1 and SETX and TXNIP”.
As for `Cc1ccc(S(=O)(=O)N2CCN(C(=O)CCCCC(=O)N[C@H](C(=O)N3C[C@H](O)C[C@H]3C(=O)NCc3ccc(-c4scnc4C)cc3)C(C)(C)C)CC2)cc1` [IF-080, (2S,4R)-1-((S)-3,3-dimethyl-2-(6-oxo-6-(4-tosylpiperazin-1-yl)hexanamido)butanoyl)-4-hydroxy-N-(4-(4-methylthiazol-5-yl)benzyl)pyrrolidine-2-carboxamide], under setting [2], the “Downregulated proteins targeted” value was “CTSZ and INCENP and KIF20A and KIF22 and ANLN”; the “Proteins targeted (downregulated)” value is “PRC1 and RACGAP1 and TPX2 and TXNIP and UHRF1”. In addition, under setting [1], the “Proteins targeted (downregulated)” value is listed as “ZBTB11”.
For the compound `Cc1ncsc1-c1ccc(CNC(=O)[C@@H]2C[C@@H](O)CN2C(=O)[C@@H](NC(=O)CCOCCOCCC(=O)N2CCN(C(c3ccccc3)c3ccccc3)CC2)C(C)(C)C)cc1` [LPC020, (2S,4R)-1-((S)-2-(3-(2-(3-(4-benzhydrylpiperazin-1-yl)-3-oxopropoxy)ethoxy)propanamido)-3,3-dimethylbutanoyl)-4-hydroxy-N-(4-(4-methylthiazol-5-yl)benzyl)pyrrolidine-2-carboxamide], the “Proteins targeted (downregulated)” value under setting [1] was “YIPF3 and ZC3H13 and ZC3HC1 and ZFR and ZMYM4 and ZNF638 and ZNF830”.
Regarding `Cc1ncsc1-c1ccc(CNC(=O)[C@@H]2C[C@@H](O)CN2C(=O)[C@@H](NC(=O)CCOCCOCCC(=O)NCCC(c2ccccc2)c2ccccc2)C(C)(C)C)cc1` [LPC022, (2S,4R)-1-((S)-2-(tert-butyl)-4,13-dioxo-17,17-diphenyl-7,10-dioxa-3,14-diazaheptadecanoyl)-4-hydroxy-N-(4-(4-methylthiazol-5-yl)benzyl)pyrrolidine-2-carboxamide], the “Proteins targeted (downregulated)” value under setting [1] was “ZFR and ZMYM4”.
